Patent US9297017B2, “Methods and compositions for targeted protein degradation” (University of Washington, priority 2010, dated 2016)
“Also recorded” adds a separate entry of the source.

Experiments:
[1] = biological target: T1, COI1/JAZ1 co-receptor (Arabidopsis thaliana, UniProt O04197+Q9LMA8); assay: Ligand-binding based reconstitution assay (inositol phosphate rescue) with dialyzed COI1/ASK1 and JAZ1; conditions: for Effect of inositol phosphate on activity of the COI1/JAZ1 co-receptor (coronatine binding): dialyzed COI1, JAZ1, 1 μM inositol phosphate
T1 construct: Full-length Arabidopsis thaliana COI1 and ASK1 were co-expressed; Full-length JAZ substrate proteins were expressed as 6×His-fusion proteins in Escherichia coli; GST (cleaved yes); 6xHis; made in house; host or cells: Hi5 insect cells (COI1/ASK1); Escherichia coli (JAZ1)
T1 sequence (O04197 1-592): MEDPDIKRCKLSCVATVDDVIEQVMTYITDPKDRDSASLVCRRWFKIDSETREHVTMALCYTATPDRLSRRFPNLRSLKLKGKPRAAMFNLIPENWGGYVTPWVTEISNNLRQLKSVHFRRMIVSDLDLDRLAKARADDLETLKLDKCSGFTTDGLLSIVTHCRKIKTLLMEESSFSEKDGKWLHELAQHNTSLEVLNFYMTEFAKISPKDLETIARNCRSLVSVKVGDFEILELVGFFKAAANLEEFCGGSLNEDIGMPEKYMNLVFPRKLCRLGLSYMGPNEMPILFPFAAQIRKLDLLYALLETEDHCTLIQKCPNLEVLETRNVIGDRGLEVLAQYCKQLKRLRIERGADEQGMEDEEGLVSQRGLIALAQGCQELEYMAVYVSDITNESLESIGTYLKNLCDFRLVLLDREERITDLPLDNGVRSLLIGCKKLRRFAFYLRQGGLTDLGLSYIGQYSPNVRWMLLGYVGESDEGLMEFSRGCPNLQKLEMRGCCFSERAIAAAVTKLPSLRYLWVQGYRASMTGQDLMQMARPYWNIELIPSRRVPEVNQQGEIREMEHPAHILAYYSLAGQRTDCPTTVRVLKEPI
T1 sequence (Q39255 1-160 partner): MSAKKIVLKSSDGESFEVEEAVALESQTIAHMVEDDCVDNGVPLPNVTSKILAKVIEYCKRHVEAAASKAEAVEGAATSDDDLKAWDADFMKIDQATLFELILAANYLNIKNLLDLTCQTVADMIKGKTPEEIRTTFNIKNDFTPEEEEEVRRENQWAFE
T1 sequence (Q9LMA8 1-253): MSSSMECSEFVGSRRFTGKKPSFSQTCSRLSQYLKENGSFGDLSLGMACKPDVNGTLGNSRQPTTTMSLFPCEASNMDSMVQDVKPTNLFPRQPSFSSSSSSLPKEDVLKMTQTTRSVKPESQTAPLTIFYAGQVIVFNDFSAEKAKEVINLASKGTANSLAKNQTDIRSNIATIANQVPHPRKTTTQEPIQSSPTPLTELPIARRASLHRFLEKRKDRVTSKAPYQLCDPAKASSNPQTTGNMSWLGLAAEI
Experimental: (§1) Radioligand binding was assayed on purified proteins, with 2 mg COI1/ASK1 complex and JAZ proteins at a 1:3 molar ratio. Reactions were prepared in […] final volume and in a binding buffer containing 20 mM Tris-HCl 200 mM NaCl, and 10% glycerol. Saturation binding experiments were conducted with serial dilutions of 3H-coronatine in binding buffer. Nonspecific binding was determined in the presence of […] coronatine. Competition binding experiments were conducted with serial dilutions of JA-Ile in the presence of 100 nM ^3H coronatine with nonspecific binding determined in the presence of […] coronatine. Total binding was determined in the presence of vehicle only. Two-point binding experiments were performed in the presence of 100 nM or 300 nM ^3H-coronatine with nonspecific binding determined in the presence of […] coronatine. Following incubation with mixing at 4° C., all samples were collected with a cell harvester (Brandel, Gaithersburg, Md.) on polyethyleneimine (Sigma)-treated filters. Samples were incubated in liquid scintillation fluid for >1 hour before counting with a Packard Tri-Carb 2200 CA liquid scintillation analyzer (Packard Instrument Co.). Saturation binding experiments were analyzed by nonlinear regression, competition binding experiments by nonlinear regression with Ki calculation as described previously (Cheng 1973), and concentration-response data by sigmoidal dose-response curve fitting, all using GraphPad Prism version 4.00 for MacOSX.
To assess the functional role of Ins(1,2,4,5,6)P5 in the COI1/JAZ1 co-receptor, a protocol was developed for stripping the co-purified InsP5 from COI1 without denaturing the protein. Briefly, proteins were mixed with 10% glycerol and incubated in 2 M ammonium phosphate, 100 mM Bis-Tris propane, pH 7.0, 200 mM NaCl, and 10% glycerol at 4° C. for >24 hours with a minimum of 3× buffer changes at 100× sample volume. Samples were then transferred to 20 mM Tris-HCl, pH 8.0, 200 mM NaCl, and 10% glycerol at 4° C. for >24 hours with a minimum of three buffer changes at 100× sample volume. Inositol phosphate rescue experiments were conducted according to the radioligand binding assays described above in the presence of 300 nM ^3H-coronatine with nonspecific binding determined in the presence of 300 μM coronatine.
The resulting COI1/ASK1 complex was tested in a ligand-binding based reconstitution assay. […] From this reconstitution result, it was concluded that Ins(1,2,4,5,6)P5 binding is crucial for the jasmonate coreceptor to perceive the hormone with high sensitivity.

[2] = biological target: T2, COI1-JAZ6 complex (Arabidopsis thaliana, UniProt O04197+Q9C9E3); assay: Competition binding with 100 nM 3H-coronatine; conditions: 100 nM 3H-COR, COI1-JAZ6 complex; read-out: Inhibition constant (Ki), competition with 3H-coronatine
T2 construct: Full-length Arabidopsis thaliana COI1 and ASK1 were co-expressed; Full-length JAZ substrate proteins were expressed as 6×His-fusion proteins in Escherichia coli; GST (cleaved yes); 6xHis; made in house; host or cells: Hi5 insect cells (COI1/ASK1); Escherichia coli (JAZ6)
T2 sequence (O04197 1-592): T1 sequence (O04197 1-592)
T2 sequence (Q39255 1-160 partner): T1 sequence (Q39255 1-160 partner)
T2 sequence (Q9C9E3 1-269): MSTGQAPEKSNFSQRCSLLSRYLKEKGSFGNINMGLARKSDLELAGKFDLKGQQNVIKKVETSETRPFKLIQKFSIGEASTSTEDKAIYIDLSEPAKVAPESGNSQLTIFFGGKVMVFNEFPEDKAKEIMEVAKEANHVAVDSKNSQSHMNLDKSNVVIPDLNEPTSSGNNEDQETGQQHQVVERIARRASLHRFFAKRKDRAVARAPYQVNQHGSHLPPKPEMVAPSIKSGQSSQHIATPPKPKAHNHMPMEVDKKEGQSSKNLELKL
Text: (^3H)-labeled coronatine was synthesized by Amersham. Full-length Arabidopsis thaliana COI1 and ASK1 were co-expressed as a glutathione S-transferase (GST) fusion protein and an untagged protein, respectively, in Hi5 suspension insect cells. The COI1/ASK1 complex was isolated from the soluble cell lysate by glutathione affinity chromatography. After on-column tag cleavage by tobacco etch virus protease, the complex was further purified by anion exchange and gel filtration chromatography and concentrated by ultrafiltration to 12-18 mg ml^−1. Full-length JAZ substrate proteins were expressed as 6×His-fusion proteins in Escherichia coli and purified on Ni-NTA resin with subsequent dialysis into 20 mM Tris-HCl, pH 8.0, 200 mM NaCl, and 10% glycerol.
as §1, with “Samples were incubated in liquid scintillation fluid for >1 hour before counting with a Packard Tri-Carb 2200 CA liquid scintillation analyzer (Packard Instrument Co.).” left out

[3] = biological target: T3, COI1 (Arabidopsis thaliana, UniProt O04197); assay: Ligand binding assay with synthetic JAZ peptides replacing recombinant JAZ1 (coronatine binding to COI1/ASK1); conditions: 300 nM coronatine
T3 construct: Full-length Arabidopsis thaliana COI1 and ASK1 were co-expressed; GST (cleaved yes); made in house; host or cells: Hi5 insect cells (COI1/ASK1); JAZ peptides synthetic
T3 sequence (O04197 1-592): T1 sequence (O04197 1-592)
T3 sequence (Q39255 1-160 partner): T1 sequence (Q39255 1-160 partner)
Experimental: as §1
Previous studies have shown that the highly conserved PY sequence at the C-terminal end of the Jas motif plays a role in JAZ localization and stability in vivo, but that the sequence was not necessary for ligand-dependent COI1-JAZ interaction. This was confirmed by an experiment showing that truncation of the PY motif in JAZ1 had little effect on in vitro ligand binding activity (FIG. 3). […]
Various derivatives of the JAZ1 degron sequence, as well as derivatives of the JAZ6 and JAZ7 degron sequences, were analyzed for their ability to bind COI1 with high affinity in the presence of coronatine.

[4] = biological target: T1, COI1/JAZ1 co-receptor; assay: Ligand-binding based reconstitution assay (inositol phosphate rescue) with dialyzed COI1/ASK1 and JAZ1; conditions: 100 nM 3H-coronatine, read-out: EC50, rescue of 3H-coronatine binding to dialyzed COI1/ASK1 in the presence of JAZ1

Molecule | Binding of peptide to COI1 in the presence of coronatine [3] | Effect of inositol phosphate on activity of the COI1/JAZ1 co-receptor (coronatine binding) [1] | also measured
O=P(O)(O)OC1C(OP(=O)(O)O)C(OP(=O)(O)O)C(OP(=O)(O)O)C(OP(=O)(O)O)C1OP(=O)(O)O (stereo not drawn) [InsP6, inositol hexakisphosphate] | – | not favorable for activity; also recorded: significantly less efficacious | –
O=P(O)(O)O[C@H]1[C@H](OP(=O)(O)O)[C@@H](OP(=O)(O)O)[C@@H](O)[C@@H](O)[C@@H]1OP(=O)(O)O [inositol-1,4,5,6-tetrakisphosphate] | – | supports the activity | –
CCC=CC[C@H]1C(=O)CC[C@@H]1CC(=O)N[C@H](C(=O)O)[C@@H](C)CC [(3R,7R)-JA-Ile] | – | – | Ki [2]: 18000 ± 19000 nM
CC/C=C\C[C@@H]1C(=O)CC[C@@H]1CC(=O)N[C@H](C(=O)O)[C@@H](C)CC [(3R,7S)-JA-Ile, (3R,7S)-jasmonyl-L-isoleucine] | – | – | Ki [2]: 1800 ± 600 nM
O=P(O)(O)OC1C(O)C(OP(=O)(O)O)C(OP(=O)(O)O)C(OP(=O)(O)O)C1OP(=O)(O)O (stereo not drawn) [Ins(1,2,4,5,6)P5, inositol-1,2,4,5,6-pentakisphosphate] | – | rescued the interaction in a dose-dependent manner | Effect of inositol phosphate on activity of the COI1/JAZ1 co-receptor (coronatine binding) ([1]; listed as InsP5): rescues binding; Effect of exogenous inositol phosphate on untreated COI1/JAZ1 co-receptor activity ([1]; untreated (not dialyzed) COI1, JAZ1, 1 μM): did not significantly change its activity; EC50 [4]: 27 nM
JAZ1 +4 extension: LPIARRASLHRFLEKRKDRV (listed as Arabidopsis thaliana) | much higher affinity | – | –
O=P(O)(O)O[C@@H]1[C@H](O)[C@H](O)[C@@H](OP(=O)(O)O)[C@H](OP(=O)(O)O)[C@H]1O [inositol-1,4,5-trisphosphate] | – | does not | –

The next lines start with results.

Binding of peptide to COI1 in the presence of coronatine [3] | Molecule | Effect of inositol phosphate on activity of the COI1/JAZ1 co-receptor (coronatine binding) [1] | also measured
significant binding | JAZ1-extension +5+PY: ELPIARRASLHRFLEKRKDRVTSKAPY (listed as Arabidopsis thaliana) | – | –
did not bind to COI1 with high affinity | JAZ1 degron: RRASLHRFLEKRKDRVTSKAPY (R205-Y226 of JAZ1) (listed as Arabidopsis thaliana) | – | –
